The source of these data is patent US20220402935A1, “HETEROCYCLIC COMPOUND” (FIMECS, INC., priority 2019, published 2022).

The structures appear in SMILES notation. Bounds are passed on as bounds.

The target of assay [1] is T1, human XIAP_BIR3 domain purified protein (Homo sapiens, UniProt P98170).
T1 construct: purchased R & D
Description: XIAP binding inhibitory activity (HTRF, b-Smac ligand). The conditions noted are these: second symbol of cell; read-out: XIAP binding inhibition IC50 value. The procedure, abridged: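 HTRF competition between compound and C-terminally biotinylated Smac peptide AVPIAQK for His-tagged XIAP BIR3, both diluted to 90 nM before addition, in pH 7.5 HEPES/NaCl/BSA/Triton buffer. Eu-cryptate anti-His and streptavidin-XL665 added, ≥4 h at room temperature in the dark; inhibition % from 665/615 nm ratio versus no-compound wells.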
In general terms: In TR-FRET formats the signal depends on donor and acceptor labels being close together.

Assay [2] addresses T2, IRAK-M (Homo sapiens, UniProt Q9Y616).
T2 sequence (Q9Y616 1-596): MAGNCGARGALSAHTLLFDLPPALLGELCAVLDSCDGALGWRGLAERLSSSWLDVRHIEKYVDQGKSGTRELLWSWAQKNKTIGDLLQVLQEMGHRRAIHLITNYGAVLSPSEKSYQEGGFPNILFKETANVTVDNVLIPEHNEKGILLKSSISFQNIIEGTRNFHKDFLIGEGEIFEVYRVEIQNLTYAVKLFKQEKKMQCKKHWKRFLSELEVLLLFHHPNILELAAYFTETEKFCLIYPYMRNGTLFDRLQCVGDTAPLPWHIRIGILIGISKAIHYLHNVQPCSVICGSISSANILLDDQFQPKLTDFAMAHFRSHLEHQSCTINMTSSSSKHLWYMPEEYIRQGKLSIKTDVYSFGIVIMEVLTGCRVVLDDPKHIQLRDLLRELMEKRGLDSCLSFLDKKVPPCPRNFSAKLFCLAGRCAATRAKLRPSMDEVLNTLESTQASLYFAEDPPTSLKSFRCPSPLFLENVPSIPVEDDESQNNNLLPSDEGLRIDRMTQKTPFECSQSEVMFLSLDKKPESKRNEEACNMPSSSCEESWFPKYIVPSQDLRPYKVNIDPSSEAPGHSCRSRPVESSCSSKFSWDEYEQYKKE
Put plainly: In vitro degradation activity of target protein (IRAK-M ELISA in THP1 cells). It is filed as cell-based. The note with it: 24 hours, second symbol of cell, read-out: IRAK-M 50% degradation concentration (DC50 value). The arrangement: host or cells: THP1 cells. As to the method: In vitro degradation activities of target protein of the example compounds were evaluated using Enzyme-linked immuno-sorbent assay (ELISA) by the following assay steps. THP1 cells (ATCC, TIB-202) were cultured in RPMI-1640 supplemented with 10% FBS, lx sodium pyruvate, lx HEPES, D-(+)-glucose and 1% penicillin/streptomycin. THP1 cells were seeded at a density of 1×10^6 cells/well in 24-well plate and treated with DMSO control or test compound, and then incubated for 24 hours. The cells were collected and lysed on ice for 30 minutes in lysis buffer (PBS containing 0.1% Triton X-100) containing a protease inhibitor cocktail (Roche, Cat #11836170001). The lysates were sonicated for 30 sec ON/30 sec OFF for ten cycles and centrifuged for 10 minutes at 13k rpm at 4° C. Protein concentrations were determined by the BCA assay (Sigma, Cat #QPBCA-1KT). The ELISA assay was performed using the Human IRAK3/IRAKM/IRAK-M ELISA Kit (LifeSpan BioSciences, Cat #LS-F35271), and the protein levels of IRAK-M were evaluated according to the kit protocol. As to the IRAK-M degradation rate of test compounds, protein degradation rate (%) when the concentration of the test compound is […] described as A≥75%, 50%≤B<75%, 25%≤C<50%, D<25%, or 50% degradation concentration (DC50 value) described as A<0.03 μM, 0.03 μM≤B<0.1 μM, 0.1 μM≤C<0.3 μM, 0.3 μM≤D<1 μM, is shown in the table below.
A general note: In an ELISA, binding on a coated surface is turned into a signal by an enzyme label.

Assay [3] deals with T2, IRAK-M. Put plainly: IRAK-M binding inhibitory activity (KINOMEscan active site-dependent competitive assay). The arrangement: purchased Eurofins Discover X. The note with it: for IC50: second symbol of cell, read-out: IRAK-M binding inhibition IC50 value; for remaining binding at 1 µM: concentration of the test compound 1 μM, first symbol of cell, read-out: IRAK-M binding inhibition activity % Ctrl. Summed up: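 Readout given as % Ctrl, with DMSO as 100% and a control compound as 0%, scaling the test compound signal between them. Binding to human IRAK-M was assessed by KINOMEscan competition at the kinase active site.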

T1 sequence (P98170 252-356 limits assumed): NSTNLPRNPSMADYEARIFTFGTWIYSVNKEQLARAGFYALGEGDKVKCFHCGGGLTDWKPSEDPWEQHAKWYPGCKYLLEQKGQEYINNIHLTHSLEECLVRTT

On to `CN[C@@H](C)C(=O)N[C@H](C(=O)N1CCN(C(=O)c2cc3cc(F)ccc3n2CC(=O)N2CCC[C@H]2COc2cc(CN3CCC(Oc4ccnc5ccsc45)CC3)on2)CC1)C1CCCCC1` [Example 26, (S)-N-((S)-1-Cyclohexyl-2-(4-(5-fluoro-1-(2-oxo-2-((S)-2-(((5-((4-(thieno[3,2-b]pyridin-7-yloxy)piperidin-1-yl)methyl)isoxazol-3-yl)oxy)methyl)pyrrolidin-1-yl)ethyl)-1H-indole-2-carbonyl)piperazin-1-yl)-2-oxoethyl)-2-(methylamino)propanamide], for which the IC50 fell in the range of 3 to 30 µM in assay [1] and 0.3 to 1 µM at IRAK-M [3]. The DC50 at IRAK-M [2] is below 0.03 µM.

With `CN[C@@H](C)C(=O)N[C@H](C(=O)N1CCN(C(=O)c2cc3cc(F)c(F)cc3n2CC(=O)N2CCC[C@H]2COc2cc(CN3CCC(Oc4ccnc5ccsc45)CC3)on2)[C@@H](C)C1)C1CCCCC1` [Example 27, (S)-N-((S)-1-Cyclohexyl-2-((S)-4-(5,6-difluoro-1-(2-oxo-2-((S)-2-(((5-((4-(thieno[3,2-b]pyridin-7-yloxy)piperidin-1-yl)methyl)isoxazol-3-yl)oxy)methyl)pyrrolidin-1-yl)ethyl)-1H-indole-2-carbonyl)-3-methylpiperazin-1-yl)-2-oxoethyl)-2-(methylamino)propanamide], the 50% inhibitory concentration (IC50) in assay [1] lay in the range of 3 to 30 µM; on IRAK-M [3], 0.3 to 1 µM. For the same molecule, the DC50 at IRAK-M [2] was below 0.03 µM.

Turning to `CN[C@@H](C)C(=O)N[C@H](C(=O)N1CCN(C(=O)c2cc3cc(F)ccc3n2CC(=O)N2CCC[C@H]2COc2cc(CN3CCC(Oc4ccnc5ccsc45)CC3)on2)[C@@H](C)C1)C1CCCCC1` [Example 28, (S)-N-((S)-1-Cyclohexyl-2-((S)-4-(5-fluoro-1-(2-oxo-2-((S)-2-(((5-((4-(thieno[3,2-b]pyridin-7-yloxy)piperidin-1-yl)methyl)isoxazol-3-yl)oxy)methyl)pyrrolidin-1-yl)ethyl)-1H-indole-2-carbonyl)-3-methylpiperazin-1-yl)-2-oxoethyl)-2-(methylamino)propanamide], the half-inhibitory concentration (IC50) fell in the range of 3 to 30 µM in assay [1] and 0.3 to 1 µM at IRAK-M [3]. Also, the DC50 at IRAK-M [2] is below 0.03 µM.

Consider `CN[C@@H](C)C(=O)N[C@H](C(=O)N1CCN(C(=O)c2cc3cc(F)c(F)cc3n2CCOCCOCCOCCOc2cc(CN3CCC(Oc4ccnc5ccsc45)CC3)on2)CC1)C1CCCCC1` [Example 29, (S)-N-((S)-1-cyclohexyl-2-(4-(5,6-difluoro-1-(2-(2-(2-(2-((5-((4-(thieno[3,2-b]pyridin-7-yloxy)piperidin-1-yl)methyl)isoxazol-3-yl)oxy)ethoxy)ethoxy)ethoxy)ethyl)-1H-indole-2-carbonyl)piperazin-1-yl)-2-oxoethyl)-2-(methylamino)propanamide], for which the IC50 in assay [1] was 3 to 30 µM. In addition, the DC50 at IRAK-M [2] was 0.3 to 1 µM. Besides, the remaining binding at 1 µM on IRAK-M [3] is below 25%.

On to `CN[C@@H](C)C(=O)N[C@H](C(=O)N1CCN(C(=O)c2c(Cl)c3ccccc3n2CC(=O)N(C)CCOCCOCCOCCOc2cc(CN3CCC(Oc4ccnc5ccsc45)CC3)on2)CC1)C1CCCCC1` [Example 32, (S)-N-((S)-2-(4-(3-chloro-1-(3-methyl-2-oxo-14-((5-((4-(thieno[3,2-b]pyridin-7-yloxy)piperidin-1-yl)methyl)isoxazol-3-yl)oxy)-6,9,12-trioxa-3-azatetradecyl)-1H-indole-2-carbonyl)piperazin-1-yl)-1-cyclohexyl-2-oxoethyl)-2-(methylamino)propanamide], for which the IC50 in assay [1] was in the range of 3 to 30 µM. On IRAK-M [2], the DC50 is 0.3 to 1 µM. Moreover, on IRAK-M [3], the remaining binding at 1 µM is below 25%.

For `CN[C@@H](C)C(=O)N[C@H](C(=O)N1CCN(C(=O)c2c(C)c3cc(F)ccc3n2CC(=O)N(C)CCOCCOCCOCCOc2cc(CN3CCC(Oc4ccnc5ccsc45)CC3)on2)CC1)C1CCCCC1` [Example 33, (S)-N-((S)-1-cyclohexyl-2-(4-(5-fluoro-3-methyl-1-(3-methyl-2-oxo-14-((5-((4-(thieno[3,2-b]pyridin-7-yloxy)piperidin-1-yl)methyl)isoxazol-3-yl)oxy)-6,9,12-trioxa-3-azatetradecyl)-1H-indole-2-carbonyl)piperazin-1-yl)-2-oxoethyl)-2-(methylamino)propanamide], in assay [1], the IC50 is 3 to 30 µM. The DC50 on IRAK-M [2] lay in the range of 0.3 to 1 µM. Further, the remaining binding at 1 µM on IRAK-M [3] was below 25%.

Turning to `CN[C@@H](C)C(=O)N[C@H](C(=O)N1CCN(C(=O)c2c(Cl)c3cc(F)ccc3n2CC(=O)N(C)CCOCCOCCOCCOc2cc(CN3CCC(Oc4ccnc5ccsc45)CC3)on2)CC1)C1CCCCC1` [Example 34, (S)-N-((S)-2-(4-(3-chloro-5-fluoro-1-(3-methyl-2-oxo-14-((5-((4-(thieno[3,2-b]pyridin-7-yloxy)piperidin-1-yl)methyl)isoxazol-3-yl)oxy)-6,9,12-trioxa-3-azatetradecyl)-1H-indole-2-carbonyl)piperazin-1-yl)-1-cyclohexyl-2-oxoethyl)-2-(methylamino)propanamide], the IC50 in assay [1] fell in the range of 3 to 30 µM. The DC50 at IRAK-M [2] lay in the range of 0.3 to 1 µM. Further, the remaining binding at 1 µM on IRAK-M [3] lay within 25 to 50%.

In the case of `CN[C@@H](C)C(=O)N[C@H](C(=O)N1CCN(C(=O)c2c(C)c3ccccc3n2CC(=O)N(C)CCOCCOCCOCCOc2cc(CN3CCC(Oc4ccnc5ccsc45)CC3)on2)CC1)C1CCCCC1` [Example 35, (S)-N-((S)-1-cyclohexyl-2-(4-(3-methyl-1-(3-methyl-2-oxo-14-((5-((4-(thieno[3,2-b]pyridin-7-yloxy)piperidin-1-yl)methyl)isoxazol-3-yl)oxy)-6,9,12-trioxa-3-azatetradecyl)-1H-indole-2-carbonyl)piperazin-1-yl)-2-oxoethyl)-2-(methylamino)propanamide], the IC50 in assay [1] lay within 3 to 30 µM. The DC50 on IRAK-M [2] is 0.3 to 1 µM. The remaining binding at 1 µM on IRAK-M [3] lay within 25 to 50%.

For the molecule `CN[C@@H](C)C(=O)N[C@H](C(=O)N1CCN(C(=O)c2c(F)c3cc(F)ccc3n2CC(=O)N(C)CCOCCOCCOCCOc2cc(CN3CCC(Oc4ccnc5ccsc45)CC3)on2)CC1)C1CCCCC1` [Example 36, (S)-N-((S)-1-cyclohexyl-2-(4-(3,5-difluoro-1-(3-methyl-2-oxo-14-((5-((4-(thieno[3,2-b]pyridin-7-yloxy)piperidin-1-yl)methyl)isoxazol-3-yl)oxy)-6,9,12-trioxa-3-azatetradecyl)-1H-indole-2-carbonyl)piperazin-1-yl)-2-oxoethyl)-2-(methylamino)propanamide], the IC50 in assay [1] lay within 3 to 30 µM. Further, at IRAK-M [2], the DC50 is 0.3 to 1 µM. In addition, on IRAK-M [3], the remaining binding at 1 µM lay in the range of 25 to 50%.

Consider `CN[C@@H](C)C(=O)N[C@H](C(=O)N1CCN(C(=O)c2c(F)c3ccccc3n2CC(=O)N(C)CCOCCOCCOCCOc2cc(CN3CCC(Oc4ccnc5ccsc45)CC3)on2)CC1)C1CCCCC1` [Example 37, (S)-N-((S)-1-cyclohexyl-2-(4-(3-fluoro-1-(3-methyl-2-oxo-14-((5-((4-(thieno[3,2-b]pyridin-7-yloxy)piperidin-1-yl)methyl)isoxazol-3-yl)oxy)-6,9,12-trioxa-3-azatetradecyl)-1H-indole-2-carbonyl)piperazin-1-yl)-2-oxoethyl)-2-(methylamino)propanamide], for which, in assay [1], the IC50 lay in the range of 3 to 30 µM. In addition, the DC50 at IRAK-M [2] was 0.3 to 1 µM. Besides, the remaining binding at 1 µM on IRAK-M [3] is at least 75%.

For orientation: IC50 means the concentration at which inhibition is half-maximal.
